Measurements taken from patent US11980613B2, “Methods for reversing HIV latency using BAF complex modulating compounds” (priority 2018, dated 2024).

Tests used:
[1] = system: latent HIV-1 in ex vivo infected human CD4+ T cells; assay: Ex vivo HIV latency model (Lassen), luciferase readout; format: cell-based
Protocol: [drawing 27] i. BRD-K25923209: To Macrocycle 2141-039b (0.804 g, 1.550 mmol) dissolved in MeOH (Volume: 15.50 ml) was added tin(II) chloride dihydrate (3.50 g, 15.50 mmol). […] Upon completion, the reaction mixture was concentrated and the resulting residue was dissolved in EtOAc and washed with 2 M aq. KOH (2×). The combined aqueous layers were washed with EtOAc (4×). The resulting organic layers were washed with brine, saturated aqueous NaHCO3, water, and brine, dried over MgSO4, filtered, and concentrated. […] BRD-K80443127: A screwtop vial was charged with aniline (BRD-K25923209) (43.3 mg, 0.089 mmol) and CH2Cl2 (Volume: 886 μl, Density: 1.325 g/ml). Isopropyl chloroformate (115 μl, 0.115 mmol) and DIEA (46.4 μl, 0.266 mmol) were added dropwise and reaction stirred under ambient conditions for 1 h. […] BRD-K04244835: A 2.5 mL microwave vial was charged with aniline (BRD-K25923209) (40 mg, 0.082 mmol) and EtOH (Volume: 819 μl, Density: 0.81 g/ml). Squaramide (CRE-III-001) (20.75 mg, 0.098 mmol), DIEA (42.8 μl, 0.246 mmol), and DMAP (2.000 mg, 0.016 mmol) were added in sequence and the vial was sealed. […] 9. […] 10. […] 11.

[2] = system: BAF target genes c-MYC and p21; assay: Biomarkers: mRNA of BAF target genes p21 and c-MYC in CD4+ T cells; format: cell-based, human
Protocol: [drawing 27] i. BRD-K25923209: To Macrocycle 2141-039b (0.804 g, 1.550 mmol) dissolved in MeOH (Volume: 15.50 ml) was added tin(II) chloride dihydrate (3.50 g, 15.50 mmol). The reaction mixture was stirred at 40° C. for 24 h until LC/MS indicated complete consumption of starting material (nitro) and presence of desired mass. Upon completion, the reaction mixture was concentrated and the resulting residue was dissolved in EtOAc and washed with 2 M aq. KOH (2×). The combined aqueous layers were washed with EtOAc (4×). The resulting organic layers were washed with brine, saturated aqueous NaHCO3, water, and brine, dried over MgSO4, filtered, and concentrated. The crude aniline was sufficiently pure to use in the capping step and therefore was used without purification. Note: The workup as described above produces a lot of precipitate/emulsion. This can be overcome by extensive washing or alternately, the reaction can be quenched with 1 volume of 1 M NaOH, stirred with celite for 10 minutes, and filtered prior to workup to yield 33.8% (17.2 mg) over 3 steps. (M+H)^+ calculated=489.286 (M+H)^+ average (3 ESI replicates)=489.2866±0.92. j. BRD-K80443127: A screwtop vial was charged with aniline (BRD-K25923209) (43.3 mg, 0.089 mmol) and CH2Cl2 (Volume: 886 μl, Density: 1.325 g/ml). Isopropyl chloroformate (115 μl, 0.115 mmol) and DIEA (46.4 μl, 0.266 mmol) were added dropwise and reaction stirred under ambient conditions for 1 h. […] The reaction mixture was loaded directly onto SiO2 and purified via ISCO (1-12% MeOH in CH2Cl2, 20 min); Collected fractions 40-44 to afford the product as a yellow oil in 33.8% (17.2 mg) yield. (M+H)^+ calculated=575.3228 (M+H)^+ average (3 ESI replicates)=575.3235±1.32. k. BRD-K04244835: A 2.5 mL microwave vial was charged with aniline (BRD-K25923209) (40 mg, 0.082 mmol) and EtOH (Volume: 819 μl, Density: 0.81 g/ml). Squaramide (CRE-III-001) (20.75 mg, 0.098 mmol), DIEA (42.8 μl, 0.246 mmol), and DMAP (2.000 mg, 0.016 mmol) were added in sequence and the vial was sealed. […] (M+H)^+ calculated=654.365 (M+H)^+ average (3 ESI replicates)=654.3661±1.64. […]

CO[C@H]1CN(C)C(=O)c2cc(NC(=O)OC(C)C)ccc2OC[C@H](C)N(Cc2ccc(-c3ccccn3)cc2)C[C@@H]1C [BRD-K80443127]
latency reversal (transcription of latent HIV-1) ([1]; 24 h treatment): efficiently triggered HIV transcription
latency reversal in combination with other latency reversal agents ([1]; compared to single agent treatments): potentiated the effect of other latency reversal agents
differential expression of c-MYC and p21 ([2]; CD4+ T cells from 3 healthy donors, 3 μM, 16 hours): consistent with BAF inhibition
C-MYC transcript levels ([2]; three patients, 10 μM): significant decrease
p21 transcript levels ([2]; three patients, 10 μM): significant decrease
